From ChEMBL document CHEMBL1136751 (J Med Chem, 2003)
pEC50, pIC50: −log10 of the molar value.

Assays:
[1] = biological target: T1, Peroxisome proliferator-activated receptor gamma (Homo sapiens, UniProt P37231)
T1 sequence (P37231 whole entry): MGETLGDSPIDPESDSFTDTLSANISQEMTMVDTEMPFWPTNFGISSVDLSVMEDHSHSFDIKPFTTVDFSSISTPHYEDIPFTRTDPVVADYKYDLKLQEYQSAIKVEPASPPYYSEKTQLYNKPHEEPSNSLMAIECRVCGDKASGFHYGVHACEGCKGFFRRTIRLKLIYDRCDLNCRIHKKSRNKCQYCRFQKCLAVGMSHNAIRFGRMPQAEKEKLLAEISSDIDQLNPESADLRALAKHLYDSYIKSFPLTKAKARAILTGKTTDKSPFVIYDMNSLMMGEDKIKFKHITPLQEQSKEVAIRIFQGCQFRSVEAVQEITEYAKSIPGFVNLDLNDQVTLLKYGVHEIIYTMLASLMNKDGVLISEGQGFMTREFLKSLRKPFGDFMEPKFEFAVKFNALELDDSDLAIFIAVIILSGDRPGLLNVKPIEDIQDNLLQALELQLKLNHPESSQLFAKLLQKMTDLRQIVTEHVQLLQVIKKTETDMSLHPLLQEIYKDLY
Description: Receptor binding affinity to human Peroxisome proliferator activated receptor gamma against [3H]ragalitazar radioligand

[2] = biological target: T2, Peroxisome proliferator-activated receptor alpha (Homo sapiens, UniProt Q07869); experiment: Receptor binding affinity to human Peroxisome proliferator activated receptor alpha against [3H]-NNC 0061-4655 radioligand
T2 sequence (Q07869 whole entry): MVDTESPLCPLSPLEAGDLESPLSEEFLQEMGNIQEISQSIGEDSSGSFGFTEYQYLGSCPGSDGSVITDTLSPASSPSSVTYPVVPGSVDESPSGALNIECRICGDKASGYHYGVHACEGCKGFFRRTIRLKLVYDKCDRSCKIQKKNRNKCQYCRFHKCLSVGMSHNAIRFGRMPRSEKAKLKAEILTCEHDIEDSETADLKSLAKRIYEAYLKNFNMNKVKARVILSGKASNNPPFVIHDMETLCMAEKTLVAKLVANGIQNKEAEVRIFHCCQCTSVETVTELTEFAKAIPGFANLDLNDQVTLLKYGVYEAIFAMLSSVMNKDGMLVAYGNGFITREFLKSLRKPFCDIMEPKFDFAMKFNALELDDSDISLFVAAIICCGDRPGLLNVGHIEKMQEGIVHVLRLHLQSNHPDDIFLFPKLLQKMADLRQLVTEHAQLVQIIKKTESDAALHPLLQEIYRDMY

[3] = biological target: T1, Peroxisome proliferator-activated receptor gamma; remark: listed apart in the source
Description: Agonistic activity for human Peroxisome proliferator activated receptor gamma

[4] = biological target: T2, Peroxisome proliferator-activated receptor alpha; experiment: Agonistic activity for Peroxisome proliferator activated receptor alpha; type: functional

Row | Structure (SMILES) | pIC50 [1] | pIC50 [2] | pEC50 [3] | pEC50 [4]
1 | CCO[C@H](Cc1ccc(OCCN2c3ccccc3Oc3ccccc32)cc1)C(=O)O | < 5.00 | < 5.00 | – | –
2 | CCO[C@@H](Cc1ccc(OCCN2c3ccccc3Oc3ccccc32)cc1)C(=O)O [RAGAGLITAZAR] | – | 6.01 | 6.22 | –
3 | CCO[C@@H](Cc1ccc(OCCc2ccc(OS(C)(=O)=O)cc2)cc1)C(=O)O [TESAGLITAZAR] | 6.46 | 5.42 | 5.89 | 5.92
